Measured values as given in PMC6615598, “Novel antibiotics effective against gram-positive and -negative multi-resistant bacteria with limited resistance” (PLoS Biology, 2019).
Values joined by “and” are separate entries in the source; they are usually repeats but may differ in a detail not shown here. Equal entries are not always repeated. Starred links: 1 amine or outer side, 2 acyl side, 3 side chain; linkers in the order of their positions; H or OH if unused. Non-standard residues stand in square brackets, D forms with d. Residues, ends and D or L forms follow the SMILES beside them. azaβ3(1Nal) = O=C(CN(Cc1cccc2ccccc12)N[*:1])[*:2]

Assays:
zebrafish embryos = assay: Zebrafish embryo quantitative toxicity (size, curvature, cardiac frequency)
Experimental: Adult fish were kept in 30l aquariums at 27°C ± 2°C under constant light/dark (14:10 h) cycles. The day before the embryos were used, males and females were placed in breeding tanks. The fish were left undisturbed overnight, and the eggs were collected 1 h after the light was turned on the next morning. When the injections of the cyclic peptides started, embryos were transferred into microtiter plates placed at 28°C for 24 h. Peptides were prepared at 1, 10, 20, 40, and 100 mM concentrations in water, and injections were performed into the caudal vein. Each peptide was injected at 1 nl for all concentrations except 100 mM, when 2 nl was injected. Control embryos were injected with 1 nl of water. When the peptides were injected, analysis determined embryo sizes, curvatures, and cardiac frequencies. Peptide concentrations were checked in 10 embryos, and these were divided among 96-well plates and analyzed under a microscope or using a magnifying glass. […] To do this, each peptide was prepared in 0.9% NaCl and injected into the tail veins of 3 male Swiss mice at 1.5, 2.0, 2.5, or 5.0 mg.kg^−1, corresponding, respectively, to calculated blood concentrations of approximately 18.5, 24.5, 31, and 62.0 μM. […] Clinical signs were recorded daily, including any reduced motor activity, piloerection, and redness in the ear lobe, cyanosis, protruding eyeballs, slow or labored breathing, loss of response in the rear legs, convulsions, or death. Body weight was recorded at least once before the beginning of the treatment period and again on the day of treatment, with the satellite group checked once during the observation period. For the groups of mice observed for 7 d, food consumption was measured once during the study. […] Hematology investigations were performed before necropsy for all animals except the satellite ones, whose blood biochemistry parameters were determined before euthanasia. […]

S. aureus MRSA = assay: Cutaneous abscess mouse model (lesion size, CFU); type: in vivo, mice
Experimental: For the cutaneous abscess model, the mice were randomly divided into 5 sets. The mice were anesthetized with isoflurane, their dorsal fur shaved, and their skin disinfected with 70% ethanol. An overnight culture of S. aureus MRSA or P. aeruginosa LESB58 was washed with 0.9% NaCl, and then a subcutaneous injection of 2 × 10^9 CFUs and an equal amount of sterile Cytodex microcarrier beads (20 mg.ml^−1, Sigma) for S. aureus MRSA, or 10^8 CFUs for P. aeruginosa were injected into the shaved area. […] Mice were monitored every day and then euthanized with CO2 on Day 6 or on Day 3. Abscesses were excised, measured, and homogenized in PBS using an Ultra-Turax. Serial dilutions of the samples were plated on BHI (MRSA) or 2YT medium (LESB58) plates and then incubated overnight at 37°C. Afterward, the CFUs were counted and expressed as log CFU/ml. Dermonecrosis areas were calculated according to the formula π × L × W. ATP levels were determined with an ATP assay kit (Promega) according to manufacturer instructions on sets of 5 colonies harboring the SCV phenotype, and sets of 5 colonies harboring a normal phenotype, after growth on BHI plates.

MRSA (Mu3) = assay: microbe, parasite or virus in culture; details: 15 colonies
Experimental: For 15 d in MHB, MICs were determined daily for each pseudopeptide and their antibiotic controls. This was done using cells from the well in which the compound concentration was one-half of the MIC (1/2MIC). For each compound, the 1/2MIC well from the previous day’s MIC assay plate was re-suspended and the bacteria grown to a density of about 10^8 cells ml−1. The suspension was diluted in MHB or CAMHB (10^6 cells/ml) and then used to determine the MIC of the same compound determined by micro broth dilution. All MIC measurements were performed in duplicate. Aliquots of the 5 × 10^4 cell/ml dilutions for each 1/2MIC well were periodically plated on MHB and incubated at 35°C for 18 h to verify cell density by colony counts and for visual inspection of colony phenotypes. To control compound stability, peptide solution MICs were determined during and at the end of the 15 d and were compared to cells unexposed to antibiotics. In vivo resistance was also assessed in treated mice (1.5 mg.kg^−1) for 4 d (sepsis) or 6 d (skin abscesses). […] The broth microdilution method was performed as per EUCAST recommendations on 5 independent colonies per mouse (3 mice per set, 15 colonies per drug tested). For severe sepsis and subcutaneous abscesses, in vivo resistance was determined by plating aliquots of crude kidney extracts or abscesses on plates containing 1-, 2-, 4-, or 8-fold the peptide MICs 7 or 3 d post infections, respectively.

MRSA = assay: Membrane permeation, SYTO Green fluorescence; type: cell-based, S. aureus
Experimental: Permeation assays were also performed on gram-positive S. aureus membranes (MSSA and MRSA) by fluorescence assay [31] with SYTO Green nucleic acid stain (Life Technologies) in black flat-bottom 96-well microtiter plates (Greiner) in biological triplicate. Bacteria were grown to 0.3–0.4 OD600 in CAMHB at 37°C and centrifuged at 3,500 tr/min for 10 min. The pellet was washed and dissolved in PBS to an absorbance of 0.4 at 600 nm (approximately 2.10^8 CFU/ml). SYTO Green was added to the cells at a 5 μM final concentration, with dark incubation for 30 min. The amount of 50 μL of bacteria/SYTO Green mixture was added to each well containing compounds serially diluted in PBS, and fluorescence was measured at 37°C for up to 12 h using a spectrophotometer (BIOTEK, Tungsten-Halogen Lamp) with 485 nm excitation and 525 nm emission wavelengths.

[1] = mice, MRSA subcutaneous, single IV 1.5 mg.kg^−1 at 24 h, 6 days post infection

Compound	Cardiac frequency, Mean (zebrafish embryos; 1 nl of 1 mM injected) [heart beat/10 sec]	Cardiac frequency, Mean (zebrafish embryos; 1 nl of 10 mM injected) [heart beat/10 sec]	Cardiac frequency, Mean (zebrafish embryos; 1 nl of 20 mM injected) [heart beat/10 sec]	CFU counts per abscess, SCV (S. aureus MRSA; cutaneous abscesses from MRSA in mice, IV 24 h post-infection, 1.5 mg.kg-1, SCV, individual values)	Area of dermonecrosis (S. aureus MRSA; cutaneous abscesses from MRSA in mice, IV 24 h post-infection, 1.5 mg.kg-1, individual values)	Bacterial content of skin abscess (S. aureus MRSA; [1])	Skin abscess volume (S. aureus MRSA; [1])	MIC (MRSA (Mu3); MRSA colonies from kidneys of septic mice, d4, single IV 1.5 mg.kg^−1 at 3 h or 15 h)	MIC (MRSA (Mu3); MRSA colonies from mice skin abscess, d6, single IV 1.5 mg.kg^−1 at 24 h)	Membrane permeation (leakage) (MRSA)
CC(C)[C@@H]1NC(=O)[C@H](CCCNC(=N)N)NC(=O)[C@H](CCCNC(=N)N)NC(=O)[C@H](Cc2c[nH]c3ccccc23)NC(=O)[C@H](Cc2ccccc2)NC(=O)[C@H](Cc2ccccc2)NC(=O)[C@H](CCCCN)NC1=O [Pep18] (cyclo(FFWRRVK))	29	29	22							
CC(C)[C@@H]1NC(=O)[C@H](CCCNC(=N)N)NC(=O)[C@H](CCCNC(=N)N)NC(=O)CN(Cc2cccc3ccccc23)NC(=O)[C@H](Cc2ccccc2)NC(=O)CN(Cc2cccc3ccccc23)NC(=O)[C@H](CCCCN)NC1=O [Pep19] (cyclo([azaβ3(1Nal)]F[azaβ3(1Nal)]RRVK))				5.62 log Cfu/ml and 5.85 log Cfu/ml and 5.73 log Cfu/ml and 5.93 log Cfu/ml and 5.11 log Cfu/ml and 4.73 log Cfu/ml and 4.55 log Cfu/ml and 5.5 log Cfu/ml and 5.67 log Cfu/ml	165.8 mm2 and 78.8 mm2 and 98.9 mm2 and 174.7 mm2 and 106.7 mm2 and 160.2 mm2 and 96.4 mm2 and 106.4 mm2 and 176.2 mm2	strong reduction	strong reduction	8 (8.8) μM	16 (16.2) μM	most active
